Laboratory results reported in patent publication US20050281749A1, “Sprayable compositions comprising a combination of pharmaceutical actives and an oily phase” (GALDERMA S.A., priority 2004, published 2005).

Key:
[1] = Stability of calcitriol in Miglyol 812 (caprylic/capric triglycerides), HPLC assay; format: physicochemical; conditions: calcitriol 30 ppm in Miglyol 812 with 0.4% BHT
Description: a) Stability of calcitriol in Miglyol 812 (caprylic/capric triglycerides): Solution of calcitriol 30 ppm in qs 100% of Miglyol 812 in the presence of 0.4% of BHT. HPLC assay technique against reference substance. At the starting time (TO) the composition is considered to contain 100% of calcitriol. Concentration of calcitriol measured in % relative to TO: […]

[2] = Stability of calcitriol in Cetiol SN (cetearyl isononanoate), HPLC assay; format: physicochemical; conditions: calcitriol 30 ppm in Cetiol SN with 0.4% BHT
Description: b) Stability of calcitriol in Cetiol SN (cetearyl isononanoate): Solution of calcitriol 30 ppm in qs 100% of Cetiol SN (cetearyl isononanoate) in the presence of 0.4% of BHT. HPLC assay technique against reference substance. At the starting time (TO) the composition is considered to contain 100% of calcitriol. Concentration of calcitriol measured in % relative to TO: […]

C=C1/C(=C\C=C2/CCC[C@]3(C)[C@@H]([C@H](C)CCCC(C)(C)O)CC[C@@H]23)C[C@@H](O)C[C@@H]1O [calcitriol]
Concentration of calcitriol measured in % relative to TO ([1]; +4° C., T 2 weeks): 98.3%
Concentration of calcitriol measured in % relative to TO ([1]; +4° C., T 4 weeks): 105.2%
Concentration of calcitriol measured in % relative to TO ([1]; +40° C., T 2 weeks): 91%
Concentration of calcitriol measured in % relative to TO ([1]; +40° C., T 4 weeks): 93.8%
Concentration of calcitriol measured in % relative to TO ([1]; AT, T 2 weeks): 95.1%
Concentration of calcitriol measured in % relative to TO ([1]; AT, T 4 weeks): 98.0%
Concentration of calcitriol measured in % relative to TO ([2]; +4° C., T 2 weeks): 98.6%
Concentration of calcitriol measured in % relative to TO ([2]; +4° C., T 4 weeks): 98.1%
Concentration of calcitriol measured in % relative to TO ([2]; +40° C., T 2 weeks): 99.0%
Concentration of calcitriol measured in % relative to TO ([2]; +40° C., T 4 weeks): 98.9%
Concentration of calcitriol measured in % relative to TO ([2]; AT, T 2 weeks): 98.7%
Concentration of calcitriol measured in % relative to TO ([2]; AT, T 4 weeks): 98.4%
